Article PMC3819306, “Exploring the Binding Nature of Pyrrolidine Pocket-Dependent Interactions in the Polo-Box Domain of Polo-Like Kinase 1” (PLoS ONE, 2013)
Like-named read-outs stand apart in the source and are kept apart here. Where a SMILES comes first, the peptide text is derived from it.

Legend:
Plk1 PBD [1] = target: T1, Plk1 PBD (Homo sapiens, UniProt P53350); assay: ELISA-based Plk1 PBD-binding inhibition assay
T1 construct: Mitotic 293A lysates expressing HA-EGFP-Plk1 were prepared in the TBSN buffer; expressed in transfected cells; host or cells: 293A cells, mitotic lysate
Method: The wells were washed once with PBS + 0.05% Tween 20 (PBST), and incubated with 200 µl of PBS + 1% BSA (blocking buffer) for 1 h to prevent the unoccupied sites. […] Next, the plates were washed four times with PBST, and to detect the bound HA-EGFP-Plk1, the plates were incubated for 2 h with 100 µL/well of anti-HA antibody at a concentration of 0.5 µg/mL in the blocking buffer, and then the plates were washed five times. Furthermore, the plates were incubated with 100 µL/well of secondary antibody at a 1:1,000 dilution in the blocking buffer. Afterward, the plates were washed five times with PBST and incubated with 100 µL/well of 3,3′,5,5′-tetramethylbenzidine (TMB) substrate solution (Sigma, St. Louis, MO) until a desired absorbance was achieved. The reactions were terminated by the addition of 1 N H2SO4, and the optical densities were measured at 450 nm using an ELISA plate reader (Molecular Device, Sunnyvale, CA).

PBD of Plk1 = target: T2, PBD of Plk1 (Homo sapiens, UniProt P53350); assay: Fluorescence polarization assay, Plk1 PBD; type: binding; conditions: 25 nM 5-carboxyfluorescein-DPPLHSpTAI-OH, Figure 8, read-out: IC50 PBD1
T2 construct: The Plk1 PBD protein (residues 371−603) was purified as previously described; made in house
Method: Fluorescein-labeled peptides (5-carboxyfluorescein-DPPLHSpTAI-OH, final concentration: 25 nM) were incubated with the PBDs of Plk1, Plk2, and Plk3, respectively (final concentrations of buffer components: 10 mM Tris [pH 8.0], 1 mM EDTA, 50 mM NaCl, and 0.01% Nonidet P-40). Fluorescence polarization was analyzed 10 min after mixing all components in the 384-well format using a Molecular Devides SpectraMax Paradigm Multi-Mode Microplate Detection Platform. All experiments were performed in triplicate.

Plk1 PBD [2] = target: T1, Plk1 PBD; set-up: method as in PMID 19597481; conditions: cited from earlier work
[3] = ELISA-based assay, text values referring to Figure 2, read-out: IC50 (Plk1 PBD binding)
[4] = first-phase N-alkylated Pro derivatives, HA-EGFP-Plk1 from mitotic 293A lysates vs immobilized p-T78 peptide, Figure 2, read-out: IC50 (ELISA-based Plk1 PBD-binding assay, Figure 2B)

T1 sequence (P53350 whole entry): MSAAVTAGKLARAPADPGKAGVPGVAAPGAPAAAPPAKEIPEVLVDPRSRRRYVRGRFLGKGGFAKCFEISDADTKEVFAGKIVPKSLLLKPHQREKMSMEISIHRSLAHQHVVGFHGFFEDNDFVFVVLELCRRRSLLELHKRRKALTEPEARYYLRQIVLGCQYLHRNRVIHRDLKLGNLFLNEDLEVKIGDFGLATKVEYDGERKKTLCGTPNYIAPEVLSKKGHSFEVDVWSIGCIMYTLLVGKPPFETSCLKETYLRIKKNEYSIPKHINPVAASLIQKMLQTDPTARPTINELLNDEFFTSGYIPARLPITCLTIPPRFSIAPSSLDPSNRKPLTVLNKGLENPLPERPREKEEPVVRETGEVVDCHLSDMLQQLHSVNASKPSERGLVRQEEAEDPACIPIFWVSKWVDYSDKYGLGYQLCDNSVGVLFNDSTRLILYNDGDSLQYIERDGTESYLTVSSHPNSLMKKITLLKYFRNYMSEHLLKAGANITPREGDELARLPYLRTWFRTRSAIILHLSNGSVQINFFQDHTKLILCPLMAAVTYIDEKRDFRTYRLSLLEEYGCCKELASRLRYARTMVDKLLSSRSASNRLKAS
T2 sequence (P53350 371-603): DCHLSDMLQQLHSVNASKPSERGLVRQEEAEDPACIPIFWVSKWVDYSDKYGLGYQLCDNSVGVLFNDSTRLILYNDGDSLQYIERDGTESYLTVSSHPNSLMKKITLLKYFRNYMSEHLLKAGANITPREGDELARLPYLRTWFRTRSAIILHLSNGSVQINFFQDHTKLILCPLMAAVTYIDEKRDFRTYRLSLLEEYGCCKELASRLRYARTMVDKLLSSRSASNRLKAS

Compound | IC50 (Plk1 PBD [1]; [3]) | IC50 (Plk1 PBD [1]; [4]) | IC50 (PBD of Plk1) | further results
COc1cc(CN2CCC[C@H]2C(=O)N[C@@H](CC(C)C)C(=O)N[C@@H](Cc2c[nH]cn2)C(=O)N[C@@H](CO)C(=O)N[C@H](C(=O)N[C@@H](CCSC)C(N)=O)[C@@H](C)OP(=O)(O)O)cc(OC)c1OC [PL-42, (MeO)3PhCH2PLHSpTM] (HELM PEPTIDE1{[COc1cc(CN2CCC[C@H]2C(=O)[*:2])cc(OC)c1OC].L.H.S.[C[C@@H](OP(=O)(O)O)[C@H](N[*:1])C(=O)[*:2]].M.[am]}$$$$V2.0) | 1480 nM | 1640 nM | 522 nM | 
CSCC[C@H](NC(=O)[C@@H](NC(=O)[C@H](CO)NC(=O)[C@H](Cc1c[nH]cn1)NC(=O)[C@H](CC(C)C)NC(=O)[C@@H]1CCCN1Cc1cc2c(cc1Cl)OCO2)[C@@H](C)OP(=O)(O)O)C(N)=O [PL-43] (HELM PEPTIDE1{[O=C([C@@H]1CCCN1Cc1cc2c(cc1Cl)OCO2)[*:2]].L.H.S.[C[C@@H](OP(=O)(O)O)[C@H](N[*:1])C(=O)[*:2]].M.[am]}$$$$V2.0) |  | 4470 nM |  | 
CSCC[C@H](NC(=O)[C@@H](NC(=O)[C@H](CO)NC(=O)[C@H](Cc1c[nH]cn1)NC(=O)[C@H](CC(C)C)NC(=O)[C@@H]1CCCN1C(=O)CC1CCCCC1)[C@@H](C)OP(=O)(O)O)C(N)=O [PL-57] (HELM PEPTIDE1{[O=C(CC1CCCCC1)[*:2]].P.L.H.S.[C[C@@H](OP(=O)(O)O)[C@H](N[*:1])C(=O)[*:2]].M.[am]}$$$$V2.0) |  |  |  | IC50 (Plk1 PBD [1]; first-phase N-acylated cyclohexyl analogues, values printed in picture of Figure 4, read-out: IC50 (ELISA-based Plk1 PBD-binding assay, Figure 4B)): 520 nM
LHSpTA |  |  |  | binding to Plk1 PBD compared with PLHSpT (Plk1 PBD [2]): almost as efficiently as the PLHSpT did

Now from value to compound, other results behind:

IC50 (Plk1 PBD [1]; [3]) | IC50 (Plk1 PBD [1]; [4]) | IC50 (PBD of Plk1) | Compound | further results
360 nM | 410 nM |  | CSCC[C@H](NC(=O)[C@@H](NC(=O)[C@H](CO)NC(=O)[C@H](Cc1c[nH]cn1)NC(=O)[C@H](CC(C)C)NC(=O)[C@@H]1CCCN1CC1CCCCC1)[C@@H](C)OP(=O)(O)O)C(N)=O [PL-49, cyclohexylmethyl-PLHSpTM] (HELM PEPTIDE1{[O=C([C@@H]1CCCN1CC1CCCCC1)[*:2]].L.H.S.[C[C@@H](OP(=O)(O)O)[C@H](N[*:1])C(=O)[*:2]].M.[am]}$$$$V2.0) | 
 |  | 131 nM | CSCC[C@H](NC(=O)[C@@H](NC(=O)[C@H](CO)NC(=O)[C@H](Cc1c[nH]cn1)NC(=O)[C@H](CC(C)C)NC(=O)[C@@H]1CCCN1C(=O)CC12CC3CC(CC(C3)C1)C2)[C@@H](C)OP(=O)(O)O)C(N)=O [PL-55] (HELM PEPTIDE1{[O=C(CC12CC3CC(CC(C3)C1)C2)[*:2]].P.L.H.S.[C[C@@H](OP(=O)(O)O)[C@H](N[*:1])C(=O)[*:2]].M.[am]}$$$$V2.0) | 
